In US11180462B2, “Microbiocidal oxadiazole derivatives” (SYNGENTA PARTICIPATIONS AG, priority 2015, dated 2021):

Tests used:
[1] = tested on: Puccinia recondita f. Sp. Tritici; test: Fungicidal activity against Puccinia recondita f. sp. tritici / wheat / leaf disc preventative (brown rust); assay type: in vivo; conditions: foliar, 200 ppm in the applied formulation, wheat leaf segments, preventative, compared to untreated control leaf disks, read-out: disease control
Outline: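 Preventative leaf-segment test, wheat cv. Kanzler on water agar. Spray compound at 200 ppm, inoculate with spores 1 day later; 19° C., 75% rh, 12/12 h light. Read-out: % disease control vs untreated, 7 to 9 days after application.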

[2] = tested on: Puccinia recondita f. Sp. Tritici; test: Fungicidal activity against Puccinia recondita f. sp. tritici / wheat / leaf disc curative (brown rust); assay type: in vivo; conditions: foliar, 24 h, 200 ppm in the applied formulation, wheat leaf segments, curative (applied 1 day after inoculation), compared to untreated control leaf disks, read-out: disease control
Outline: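 Inoculate cv. Kanzler segments on agar; hold dark, 19° C, 75% RH. Spray diluted formulated compound at day 1. Incubate 12 h light/12 h dark, same temperature and humidity; score % control vs untreated 6–8 days later.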

[3] = tested on: Phakopsora Pachyrhizi; test: Fungicidal activity against Phakopsora pachyrhizi / soybean / leaf disc preventative (Asian soybean rust); assay type: in vivo; conditions: foliar, 200 ppm in the applied formulation, soybean leaf disks, compared to untreated control leaf disks, read-out: disease control
Outline: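 Preventative soybean leaf-disc test: discs on water agar sprayed with diluted formulated compound, inoculated one day later with spores on the lower surface. Held 24–36 h dark at 20°C, 75% rh, then 12 h light/day; percent disease control versus untreated discs scored 12–14 days after application.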

[4] = tested on: Glomerella lagenarium (Colletotrichum lagenarium); test: Fungicidal activity against Glomerella lagenarium (Colletotrichum lagenarium) liquid culture / cucumber / preventative (anthracnose); assay type: cell-based; conditions: Colletotrichum orbiculare; 20 ppm in the applied formulation; liquid culture (PDB), growth inhibition measured photometrically after 3 to 4 days; compared to untreated control; read-out: disease control
Outline: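 Photometric read-out of fungal growth after 2–7 days, expressed as percent antifungal activity versus untreated check. Cryo-stored conidia in PDB; compound at 20 ppm; dark, 24 °C, 96% RH.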

COCC(=O)N(OC)C(C)c1ccc(-c2noc(C(F)(F)F)n2)cc1 (centres unmarked) [Compound 1.253, N,2-dimethoxy-N-(1-[4-[5-(trifluoromethyl)-1,2,4-oxadiazol-3-yl]phenyl]ethyl]-acetamide]
≥ 80%: pest or weed control at 200 ppm [1] | pest or weed control at 200 ppm [2] | pest or weed control at 200 ppm [3] | inhibition of growth at 20 ppm [4]

CCC(C)N(Cc1ccc(-c2noc(C(F)(F)F)n2)cc1)C(=O)C1OCCO1 (centres unmarked) [Compound 1.403, N-sec-butyl-N-[[4-[5-(trifluoromethyl)-1,2,4-oxadiazol-3-yl]phenyl]methyl]-1,3-dioxolane-2-carboxamide]
≥ 80%: pest or weed control at 200 ppm [1] | pest or weed control at 200 ppm [2] | pest or weed control at 200 ppm [3] | inhibition of growth at 20 ppm [4]

O=C(C1CCSCC1)N(Cc1ccc(-c2noc(C(F)(F)F)n2)cc1)CC1CC1 [Compound 1.230, N-(cyclopropylmethyl)-N-[[4-[5-(trifluoromethyl)-1,2,4-oxadiazol-3-yl]phenyl]methyl]-tetrahydrothiopyran-4-carboxamide]
≥ 80%: pest or weed control at 200 ppm [1] | pest or weed control at 200 ppm [2] | pest or weed control at 200 ppm [3] | inhibition of growth at 20 ppm [4]

CON(Cc1ccc(-c2noc(C(F)(F)F)n2)c(F)c1F)C(=O)C1CCCO1 (centres unmarked) [Compound 1.577, N-[[2,3-difluoro-4-[5-(trifluoromethyl)-1,2,4-oxadiazol-3-yl]phenyl]methyl]-N-methoxy-tetrahydrofuran-2-carboxamide]
≥ 80%: pest or weed control at 200 ppm [1] | pest or weed control at 200 ppm [2] | pest or weed control at 200 ppm [3] | inhibition of growth at 20 ppm [4]

CC1(C(=O)N(O)Cc2ccc(-c3noc(C(F)(F)F)n3)cc2)CC1 [Compound 1.764, N-hydroxy-1-methyl-N-[[4-[5-(trifluoromethyl)-1,2,4-oxadiazol-3-yl]phenyl]methyl]-cyclopropane-carboxamide]
≥ 80%: pest or weed control at 200 ppm [1] | pest or weed control at 200 ppm [2] | pest or weed control at 200 ppm [3] | inhibition of growth at 20 ppm [4]

CCC(=O)N(CCOC)Cc1ccc(-c2noc(C(F)(F)F)n2)cc1 [Compound 1.345, N-(2-methoxyethyl)-N-[[4-[5-(trifluoromethyl)-1,2,4-oxadiazol-3-yl]phenyl]methyl]-propanamide]
≥ 80%: pest or weed control at 200 ppm [1] | pest or weed control at 200 ppm [2] | pest or weed control at 200 ppm [3] | inhibition of growth at 20 ppm [4]

CON(Cc1ccc(-c2noc(C(F)(F)F)n2)cc1)C(=O)Cc1cccnc1 [Compound 1.28, N-methoxy-2-(3-pyridyl)-N-[[4-[5-(trifluoromethyl)-1,2,4-oxadiazol-3-yl]phenyl]methyl]-acetamide]
≥ 80%: pest or weed control at 200 ppm [1] | pest or weed control at 200 ppm [2] | pest or weed control at 200 ppm [3] | inhibition of growth at 20 ppm [4]

CCCN(Cc1ccc(-c2noc(C(F)(F)F)n2)cc1)C(=O)COC [Compound 1.575, 2-methoxy-N-propyl-N-[[4-[5-(trifluoromethyl)-1,2,4-oxadiazol-3-yl]phenyl]methyl]-acetamide]
≥ 80%: pest or weed control at 200 ppm [1] | pest or weed control at 200 ppm [2] | pest or weed control at 200 ppm [3] | inhibition of growth at 20 ppm [4]

C=C(C)C(=O)N(Cc1ccc(-c2noc(C(F)(F)F)n2)cc1)C1CC1 [Compound 1.122, N-cyclopropyl-2-methyl-N-[[4-[5-(trifluoromethyl)-1,2,4-oxadiazol-3-yl]phenyl]methyl]prop-2-enamide]
≥ 80%: pest or weed control at 200 ppm [1] | pest or weed control at 200 ppm [2] | pest or weed control at 200 ppm [3] | inhibition of growth at 20 ppm [4]

CC(C)N(Cc1ccc(-c2noc(C(F)(F)F)n2)cc1)C(=O)C1CC1(F)F (centres unmarked) [Compound 1.671, 2,2-difluoro-N-isopropyl-N-[[4-[5-(trifluoromethyl)-1,2,4-oxadiazol-3-yl]phenyl]methyl]-cyclopropane-carboxamide]
≥ 80%: pest or weed control at 200 ppm [1] | pest or weed control at 200 ppm [2] | pest or weed control at 200 ppm [3] | inhibition of growth at 20 ppm [4]

CC1(C(=O)N(O)Cc2ccc(-c3noc(C(F)(F)F)n3)cc2)COC1 [Compound 1.766, N-hyd roxy-3-methyl-N-[[4-[5-(trifluoromethyl)-1,2,4-oxadiazol-3-yl]phenyl]methyl]-oxetane-3-c arboxamide]
≥ 80%: pest or weed control at 200 ppm [1] | pest or weed control at 200 ppm [2] | pest or weed control at 200 ppm [3] | inhibition of growth at 20 ppm [4]

CCC(C)C(=O)N(O)Cc1ccc(-c2noc(C(F)(F)F)n2)cc1 (centres unmarked) [Compound 1.765, N-hydroxy-2-methyl-N-[[4-[5-(trifluoromethyl)-1,2,4-oxadiazol-3-yl]phenyl]methyl]-butanamide]
≥ 80%: pest or weed control at 200 ppm [1] | pest or weed control at 200 ppm [2] | pest or weed control at 200 ppm [3] | inhibition of growth at 20 ppm [4]

CCC(C)C(=O)N(Cc1ccc(-c2noc(C(F)(F)F)n2)cc1)CC1CC1 (centres unmarked) [Compound 1.233, N-(cyclopropylmethyl)-2-methyl-N-[[4-[5-(trifluoromethyl)-1,2,4-oxadiazol-3-yl]phenyl]methyl]-butanamide]
≥ 80%: pest or weed control at 200 ppm [1] | pest or weed control at 200 ppm [2] | pest or weed control at 200 ppm [3] | inhibition of growth at 20 ppm [4]

C#CCN(Cc1ccc(-c2noc(C(F)(F)F)n2)cc1)C(=O)C1CCC1 [Compound 1.178, N-prop-2-ynyl-N-[[4-[5-(trifluoromethyl)-1,2,4-oxadiazol-3-yl]phenyl]methyl]-cyclobutane-carboxamide]
≥ 80%: pest or weed control at 200 ppm [1] | pest or weed control at 200 ppm [2] | pest or weed control at 200 ppm [3] | inhibition of growth at 20 ppm [4]

O=C(NC1CC1)N(Cc1ccc(-c2noc(C(F)(F)F)n2)cc1)C1CC1 [Compound 3.36, 1,3-dicyclopropyl-1-[[4-[5-(trifluoromethyl)-1,2,4-oxadiazol-3-yl]phenyl]methyl]urea]
≥ 80%: pest or weed control at 200 ppm [1] | pest or weed control at 200 ppm [2] | pest or weed control at 200 ppm [3] | inhibition of growth at 20 ppm [4]

COCCCC(=O)N(Cc1ccc(-c2noc(C(F)(F)F)n2)cc1)C1CC1 [Compound 1.136, N-cyclopropyl-4-methoxy-N-[[4-[5-(trifluoromethyl)-1,2,4-oxadiazol-3-yl]phenyl]methyl]-butanamide]
≥ 80%: pest or weed control at 200 ppm [1] | pest or weed control at 200 ppm [2] | pest or weed control at 200 ppm [3] | inhibition of growth at 20 ppm [4]

CON(Cc1ccc(-c2noc(C(F)(F)F)n2)cc1)C(C)=O [Compound 1.1, N-methoxy-N-[[4-[5-(trifluoromethyl)-1,2,4-Oxadiazol-3-yl]Phenyl]Methyl]-Acetamide]
≥ 80%: pest or weed control at 200 ppm [1] | pest or weed control at 200 ppm [2] | pest or weed control at 200 ppm [3] | inhibition of growth at 20 ppm [4]

C#CCN(Cc1ccc(-c2noc(C(F)(F)F)n2)cc1)C(=O)C(C)(C)CCl [Compound 1.176, 3-chloro-2,2-dimethyl-N-prop-2-ynyl-N-[[4-[5-(trifluoromethyl)-1,2,4-oxadiazol-3-yl]phenyl]methyl]-propanamide]
≥ 80%: pest or weed control at 200 ppm [1] | pest or weed control at 200 ppm [2] | pest or weed control at 200 ppm [3] | inhibition of growth at 20 ppm [4]

CCCCCC(=O)N(Cc1ccc(-c2noc(C(F)(F)F)n2)cc1)OC [Compound 1.20, N-methoxy-N-[[4-[5-(trifluoromethyl)-1,2,4-oxadiazol-3-yl]phenyl]methyl]-hexanamide]
≥ 80%: pest or weed control at 200 ppm [1] | pest or weed control at 200 ppm [2] | pest or weed control at 200 ppm [3] | inhibition of growth at 20 ppm [4]

CCC(C)C(=O)N(Cc1ccc(-c2noc(C(F)(F)F)n2)cc1)C1CC1 (centres unmarked) [Compound 1.126, N-cyclopropyl-2-methyl-N-[[4-[5-(trifluoromethyl)-1,2,4-oxadiazol-3-yl]phenyl]methyl]-butanamide]
≥ 80%: pest or weed control at 200 ppm [1] | pest or weed control at 200 ppm [2] | pest or weed control at 200 ppm [3] | inhibition of growth at 20 ppm [4]
